Test results as given in ChEMBL document CHEMBL1201862, “PubChem BioAssay data set” (2004).
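Grown in 96-well plates, cells were treated for 48 hours with each compound at five concentrations. Insufficient inhibition: endpoint recorded as highest concentration tested. Here, GI50 denotes the concentration required for 50% inhibition of growth.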 Calls of active or inactive are those of the source. Rule as the data show it: active = GI50 up to about 1.1 µM and inactive = higher. Starred links: 1 amine or outer side, 2 acyl side, 3 side chain; linkers in the order of their positions; H or OH if unused. Non-standard residues stand in square brackets, D forms with d. Residues, ends and D or L forms follow the SMILES beside them. ξ: configuration not given here. Ile(3ξ) = CCC(C)[C@H](N)C(=O)O; X35 = C=CCC(O[*:1])C(=O)[*:2]; NMeV = CN[C@H](C(=O)O)C(C)C; NMeA = CN[C@@H](C)C(=O)O; βAla = NCCC(=O)O

How the values were obtained:
Test in all cases: NCI tumour cell line growth inhibition, 48 h
SNB-78 = tested on: SNB-78
RXF 631 = tested on: RXF 631
XF498 = tested on: XF498
LXFL 529 = tested on: LXFL 529
KM-20L2 = tested on: KM-20L2
M19-MEL = tested on: M19-MEL
DMS-273 = tested on: DMS-273
DMS-114 = tested on: DMS-114
HOP-18 = tested on: HOP-18

Measured: GI50

C=CCC1OC(=O)CCNC(=O)[C@H](C)N(C)C(=O)[C@H](C(C)C)N(C)C(=O)[C@H](C(C)CC)NC(=O)[C@@H]2CCCN2C1=O (some centres not stated) (cyclo([Ile(3ξ)][NMeV][NMeA][βAla][X35]P))
inactive: SNB-78 > 100 µM | RXF 631 4.92 µM | XF498 3.65 µM | LXFL 529 3.94 µM | KM-20L2 3.18 µM | M19-MEL 5.96 µM | DMS-273 3.63 µM | DMS-114 7.5 µM

O=C(CCCCCCCCC(=O)OCCCn1cc(C(=O)NC(=O)OCc2ccccc2)c(=O)[nH]c1=O)OCCCn1cc(C(=O)NC(=O)OCc2ccccc2)c(=O)[nH]c1=O
inactive: SNB-78 > 100 µM | RXF 631 > 100 µM | HOP-18 > 100 µM | KM-20L2 > 100 µM | M19-MEL > 100 µM | DMS-273 > 100 µM

CCCCCCCCCCCc1c(O)c(=O)c2c(oc3c(=O)c(CCCCCCCCCCC)c(O)c(=O)c3n2-c2ccc(N(C)C)cc2)c1=O
inactive: SNB-78 55.2 µM | XF498 21.5 µM | HOP-18 22.6 µM | LXFL 529 21.2 µM | KM-20L2 19.3 µM | DMS-273 22.8 µM | DMS-114 24.8 µM

COc1ccc(O)c2c1C(=O)CCCC2=O
inactive: SNB-78 > 100 µM | RXF 631 > 100 µM | XF498 > 100 µM | LXFL 529 > 100 µM | KM-20L2 > 100 µM | M19-MEL > 100 µM | DMS-273 > 100 µM | DMS-114 > 100 µM

CCCCCC#COC1CC(C)CC[C@@H]1C(C)C (some centres not stated)
inactive: SNB-78 > 100 µM | HOP-18 > 100 µM | LXFL 529 97.9 µM | KM-20L2 61.1 µM | M19-MEL 48 µM | DMS-273 65 µM

C=CCc1cc(OC)c2c(c1)C(O)CC(c1ccc(OC)c(OC)c1)O2 (configuration not stated)
inactive: SNB-78 > 100 µM | HOP-18 > 100 µM | LXFL 529 > 100 µM | KM-20L2 > 100 µM | M19-MEL > 100 µM | DMS-273 > 100 µM | DMS-114 59.8 µM

Nc1nc(Cl)c2ncn(CCCC(c3ccccc3)P(=O)(O)O)c2n1 (configuration not stated)
inactive: SNB-78 > 100 µM | HOP-18 > 100 µM | LXFL 529 > 100 µM | KM-20L2 > 100 µM | M19-MEL > 100 µM | DMS-273 > 100 µM | DMS-114 > 100 µM

O=C1[C@H]2ON(c3ccccc3)C(c3cccc([N+](=O)[O-])c3)[C@H]2C(=O)N1c1ccc(Cc2ccc(N3C(=O)[C@@H]4ON(c5ccccc5)C(c5cccc([N+](=O)[O-])c5)[C@@H]4C3=O)cc2)cc1 (some centres not stated)
inactive: SNB-78 > 100 µM | HOP-18 > 100 µM | LXFL 529 > 100 µM | KM-20L2 > 100 µM | M19-MEL > 100 µM | DMS-273 > 100 µM | DMS-114 > 100 µM

CN(C)c1nc(Oc2nc(N(C)C)nc(N(C)C)n2)nc(N(C)C)n1
inactive: SNB-78 61.4 µM | XF498 84.7 µM | HOP-18 > 100 µM | LXFL 529 > 100 µM | KM-20L2 > 100 µM | M19-MEL 82.4 µM | DMS-273 61 µM | DMS-114 51.4 µM

COCN/C(N)=N/C#N
inactive: SNB-78 > 100 µM | HOP-18 > 100 µM | LXFL 529 > 100 µM | KM-20L2 > 100 µM | M19-MEL 41.7 µM | DMS-273 27.9 µM | DMS-114 18.4 µM

Nc1nc(SCC(=O)c2ccccc2)c2[nH]cnc2n1
inactive: XF498 > 100 µM | HOP-18 > 100 µM | KM-20L2 > 100 µM | M19-MEL > 100 µM | DMS-273 > 100 µM | DMS-114 > 100 µM

Cc1ccc(NC(=O)C(=O)CC(=O)c2c(C)[n+]([O-])c3ccccc3[n+]2[O-])cc1
inactive: SNB-78 49.4 µM | RXF 631 36.5 µM | HOP-18 30.9 µM | LXFL 529 35.2 µM | KM-20L2 30.8 µM | M19-MEL 16.4 µM | DMS-273 25.9 µM | DMS-114 18.2 µM

COc1ccc(C2=NN(C(C)=O)c3nc4ccccc4nc3O2)cc1
inactive: RXF 631 23 µM | XF498 19.1 µM | HOP-18 17.7 µM | LXFL 529 31.4 µM | M19-MEL 89.7 µM | DMS-273 42.1 µM | DMS-114 42.2 µM

C/C(=N\NC(=O)CC#N)c1c(O)cc(C)oc1=O
inactive: SNB-78 > 100 µM | RXF 631 > 100 µM | HOP-18 > 100 µM | LXFL 529 > 100 µM | KM-20L2 > 100 µM | M19-MEL > 100 µM

O=C(O)CC(NC(=O)CP(=O)(O)O)C(=O)O (configuration not stated)
inactive: SNB-78 973 µM | XF498 596 µM | HOP-18 3100 µM | KM-20L2 158 µM | M19-MEL 97.9 µM | DMS-273 119 µM | DMS-114 741 µM

O=c1c(Sc2c(O)c3ccccc3c3ccccc3c2=O)c(O)c2ccccc2c2ccccc12
inactive: RXF 631 37.2 µM | HOP-18 24.2 µM | LXFL 529 30 µM | KM-20L2 37.4 µM | M19-MEL 31.8 µM | DMS-273 25.1 µM | DMS-114 25.4 µM

CCCCc1c2c(nc3c1CCC/C3=C\c1ccccc1)C(=O)C(CN(C)C)CC2 (configuration not stated)
inactive: SNB-78 20.7 µM | XF498 14.9 µM | HOP-18 23.6 µM | LXFL 529 8.38 µM | KM-20L2 17.8 µM | M19-MEL 16.7 µM | DMS-273 20.2 µM | DMS-114 17.7 µM

CC(C)S(=O)(=O)n1c(N)nc2ccc(/C(=N/O)c3ccccc3)cc21 [ENVIROXIME]
inactive: SNB-78 36.4 µM | LXFL 529 41.4 µM | KM-20L2 16 µM | M19-MEL 34 µM | DMS-273 31.4 µM | DMS-114 16.9 µM

O=C1NC2OCC(O)C(O)C2O1 (configuration not stated)
inactive: SNB-78 > 100 µM | HOP-18 > 100 µM | LXFL 529 > 100 µM | KM-20L2 > 100 µM | M19-MEL > 100 µM | DMS-273 > 100 µM | DMS-114 > 100 µM

CCCCC[C@@H]1CCCC2NC(CCCCCO[Si](c3ccccc3)(c3ccccc3)C(C)(C)C)CCC21 (some centres not stated)
inactive: SNB-78 15.1 µM | RXF 631 11.5 µM | KM-20L2 10.6 µM | M19-MEL 17.3 µM | DMS-273 16.8 µM | DMS-114 13 µM

C/C(=N\NS(=O)(=O)c1ccc(C)cc1)C(CN1CCCCC1)C(c1ccccc1)c1c(O)c2ccccc2oc1=O (configuration not stated)
inactive: SNB-78 > 100 µM | XF498 > 100 µM | HOP-18 > 100 µM | LXFL 529 > 100 µM | KM-20L2 > 100 µM

CC(C)NC1CCCCC2c3ccccc3C12O (configuration not stated)
inactive: SNB-78 > 100 µM | XF498 > 100 µM | HOP-18 > 100 µM | LXFL 529 > 100 µM | KM-20L2 > 100 µM | M19-MEL > 100 µM | DMS-273 > 100 µM | DMS-114 > 100 µM

Clc1ccc(/N=N/c2nc3ccccc3nc2/N=N/c2ccc(Cl)cc2Cl)c(Cl)c1
inactive: SNB-78 > 100 µM | XF498 > 100 µM | LXFL 529 78.5 µM | KM-20L2 > 100 µM | M19-MEL > 100 µM | DMS-114 > 100 µM

CCSc1nc(N2CCCC2)s[s+]1.[O-][Cl+3]([O-])([O-])[O-]
inactive: SNB-78 74.8 µM | XF498 31 µM | HOP-18 > 100 µM | LXFL 529 22.7 µM | KM-20L2 55.6 µM | M19-MEL 2.3 µM | DMS-273 49.5 µM | DMS-114 17.6 µM

CCCN(CCC)c1c([N+](=O)[O-])cc(C(=O)N(CC)CC)cc1[N+](=O)[O-]
inactive: SNB-78 31 µM | LXFL 529 19.1 µM | KM-20L2 18.4 µM | M19-MEL 20.7 µM | DMS-273 17.6 µM | DMS-114 10.9 µM
